{"source": "patent US20230085307A1", "about": "“PYRIDAZINONE COMPOUND AND HERBICIDE” (NISSAN CHEMICAL CORPORATION, priority 2019, published 2023)", "key": {"[1]": {"test_system": "southern crabgrass", "assay": "Test Example 5: herbicidal effect by foliage application, plastic box (Table 20, symbol F)", "format": "in vivo, southern crabgrass (Digitaria ciliaris)", "details": "foliage application", "in_short": "(§1)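 Foliar spray test: emulsion formulation diluted in water to a set application rate, sprayed onto 14-day-old plants raised in diluvial soil at 25° C to 30° C under glass. Both herbicidal effect and crop effect rated visually three weeks later.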"}, "[2]": {"test_system": "green foxtail", "assay": "Test Example 5: herbicidal effect by foliage application, plastic box (Table 20, symbol G)", "format": "in vivo, green foxtail (Setaria viridis)", "details": "foliage application", "in_short": "as §1"}, "[3]": {"test_system": "barnyard grass", "assay": "Test Example 5: herbicidal effect by foliage application, plastic box (Table 20, symbol H)", "format": "in vivo, barnyard grass (Echinochloa crus-galli)", "details": "foliage application", "in_short": "as §1"}, "[4]": {"test_system": "wild oat", "assay": "Test Example 5: herbicidal effect by foliage application, plastic box (Table 20, symbol I)", "format": "in vivo, wild oat (Avena fatua)", "details": "foliage application", "in_short": "as §1"}, "[5]": {"test_system": "blackgrass", "assay": "Test Example 5: herbicidal effect by foliage application, plastic box (Table 20, symbol J)", "format": "in vivo, blackgrass (Alopecurus myosuroides)", "details": "foliage application", "in_short": "as §1"}, "[6]": {"test_system": "Italian ryegrass", "assay": "Test Example 5: herbicidal effect by foliage application, plastic box (Table 20, symbol K)", "format": "in vivo, Italian ryegrass (Lolium multiflorum)", "details": "foliage application", "in_short": "as §1"}, "[7]": {"test_system": "windgrass", "assay": "Test Example 5: herbicidal effect by foliage application, plastic box (Table 20, symbol L)", "format": "in vivo, windgrass (Apera spica-venti)", "details": "foliage application", "in_short": "as §1"}, "[8]": {"test_system": "velvetleaf", "assay": "Test Example 5: herbicidal effect by foliage application, plastic box (Table 20, symbol M)", "format": "in vivo, velvetleaf (Abutilon theophrasti)", "details": "foliage application", "in_short": "as §1"}, "[9]": {"test_system": "redroot pigweed", "assay": "Test Example 5: herbicidal effect by foliage application, plastic box (Table 20, symbol N)", "format": "in vivo, redroot pigweed (Amaranthus retroflexus)", "details": "foliage application", "from_the_text": "(§2) [Test Example 5] Herbicidal Effect Test by Foliage Application\n(§3) Sterilized diluvial soil was placed in a plastic box having a length of 21 cm, a width of 13 cm, and a depth of 7 cm. The seeds of each of southern crabgrass, green foxtail, barnyard grass, wild oat, blackgrass, Italian ryegrass, windgrass, velvetleaf, redroot pigweed, lambsquarters, chickweed, false cleavers, persian speedwell, corn, soybean, rice, wheat, beet, and rapeseed were sowed in a spot-like manner and covered with the soil having a thickness of about 1.5 cm. Thereafter, the plants were grown in a greenhouse at 25° C. to 30° C. After 14-day growth of the plants, the emulsion agent of the compound of the present invention prepared according to Formulation Example 2 was diluted with water so as to achieve a predetermined herbicide amount, and the diluted emulsion agent was uniformly applied to a foliage part with a small-sized spray. Three weeks after the herbicide application, the effect of the herbicide on each plant was evaluated according to the criteria of Test Example 1."}, "[10]": {"test_system": "lambsquarters", "assay": "Test Example 5: herbicidal effect by foliage application, plastic box (Table 20, symbol O)", "format": "in vivo, lambsquarters (Chenopodium album)", "details": "foliage application", "in_short": "as §1"}, "[11]": {"test_system": "chickweed", "assay": "Test Example 5: herbicidal effect by foliage application, plastic box (Table 20, symbol P)", "format": "in vivo, common chickweed (Stellaria media)", "details": "foliage application", "from_the_text": "as §2, §3"}, "[12]": {"test_system": "persian speedwell", "assay": "Test Example 5: herbicidal effect by foliage application, plastic box (Table 20, symbol R)", "format": "in vivo, Persian speedwell (Veronica persica)", "details": "foliage application, 320 g/ha, three weeks after application", "in_short": "as §1"}, "[13]": {"test_system": "barnyard grass", "assay": "Test Example 3: herbicidal effect by foliage application, Wagner pot (Table 18, symbol H)", "format": "in vivo, barnyard grass (Echinochloa crus-galli)", "details": "amount of applied herbicide 320 g/ha", "in_short": "(§4)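 Plants were sown in alluvial soil held under 0.1–0.5 cm standing water and grown 14 days in a greenhouse at 25–30 °C. An emulsifiable formulation, water-diluted to the set dose, was then sprayed onto the foliage, and effects were scored three weeks later using previously defined criteria.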"}, "[14]": {"test_system": "Chinese sprangletop", "assay": "Test Example 3: herbicidal effect by foliage application, Wagner pot (Table 18, symbol D)", "format": "in vivo, chinese sprangletop (Leptochloa chinensis)", "details": "amount of applied herbicide 320 g/ha", "in_short": "as §4"}, "[15]": {"test_system": "rice flat sedge", "assay": "Test Example 3: herbicidal effect by foliage application, Wagner pot (Table 18, symbol E)", "format": "in vivo, rice flat sedge (Cyperus iria)", "details": "amount of applied herbicide 320 g/ha", "in_short": "as §4"}, "[16]": {"details": "320 g/ha, three weeks after application"}, "[17]": {"details": "AAH 320 g/ha, evaluated three weeks after application"}}, "data": [{"smiles": "COc1ccc(-c2sc3ccccc3c2-c2c(O)c(C)nn(C)c2=O)c(OC)n1", "note": "[1-079]", "values": [{"measurement": "herbicidal effect grade, F: southern crabgrass", "setting": "[1]; [16]", "result": "0 (Herbicidal rate of 5% or less (almost no effect))"}, {"measurement": "herbicidal effect grade, G: green foxtail", "setting": "[2]; [16]", "result": "0 (Herbicidal rate of 5% or less (almost no effect))"}, {"measurement": "herbicidal effect grade, H: barnyard grass", "setting": "[3]; [16]", "result": "0 (Herbicidal rate of 5% or less (almost no effect))"}, {"measurement": "herbicidal effect grade, I: wild oat", "setting": "[4]; [16]", "result": "0 (Herbicidal rate of 5% or less (almost no effect))"}, {"measurement": "herbicidal effect grade, J: blackgrass", "setting": "[5]; [16]", "result": "0 (Herbicidal rate of 5% or less (almost no effect))"}, {"measurement": "herbicidal effect grade, K: Italian ryegrass", "setting": "[6]; [16]", "result": "0 (Herbicidal rate of 5% or less (almost no effect))"}, {"measurement": "herbicidal effect grade, L: windgrass", "setting": "[7]; [16]", "result": "0 (Herbicidal rate of 5% or less (almost no effect))"}, {"measurement": "herbicidal effect grade, M: velvetleaf", "setting": "[8]; [16]", "result": "0 (Herbicidal rate of 5% or less (almost no effect))"}, {"measurement": "herbicidal effect grade, N: redroot pigweed", "setting": "[9]; [16]", "result": "0 (Herbicidal rate of 5% or less (almost no effect))"}, {"measurement": "herbicidal effect grade, O: lambsquarters", "setting": "[10]; [16]", "result": "0 (Herbicidal rate of 5% or less (almost no effect))"}, {"measurement": "herbicidal effect grade, P: chickweed", "setting": "[11]; [16]", "result": "1 (Herbicidal rate of 5% or more and less than 20%)"}, {"measurement": "herbicidal effect grade, R: persian speedwell", "setting": "[12]", "result": "0 (Herbicidal rate of 5% or less (almost no effect))"}]}, {"smiles": "COC(=O)COc1c(C)nn(C)c(=O)c1-c1c(-c2ccc(OC(F)F)cc2)sc2ccc(F)cc12", "note": "[2-306]", "values": [{"measurement": "herbicidal effect on H: barnyard grass", "setting": "[13]", "result": "3 (Herbicidal rate of 40% or more and less than 70%)"}, {"measurement": "herbicidal effect on D: Chinese sprangletop", "setting": "[14]", "result": "3 (Herbicidal rate of 40% or more and less than 70%)"}, {"measurement": "herbicidal effect on E: rice flat sedge", "setting": "[15]", "result": "3 (Herbicidal rate of 40% or more and less than 70%)"}, {"measurement": "F: southern crabgrass, herbicidal effect (criteria 0-5)", "setting": "[1]; [17]", "result": "0 (Herbicidal rate of 5% or less (almost no effect))"}, {"measurement": "G: green foxtail, herbicidal effect (criteria 0-5)", "setting": "[2]; [17]", "result": "0 (Herbicidal rate of 5% or less (almost no effect))"}, {"measurement": "H: barnyard grass, herbicidal effect (criteria 0-5)", "setting": "[3]; [17]", "result": "0 (Herbicidal rate of 5% or less (almost no effect))"}, {"measurement": "I: wild oat, herbicidal effect (criteria 0-5)", "setting": "[4]; [17]", "result": "0 (Herbicidal rate of 5% or less (almost no effect))"}, {"measurement": "J: blackgrass, herbicidal effect (criteria 0-5)", "setting": "[5]; [17]", "result": "0 (Herbicidal rate of 5% or less (almost no effect))"}, {"measurement": "K: Italian ryegrass, herbicidal effect (criteria 0-5)", "setting": "[6]; [17]", "result": "0 (Herbicidal rate of 5% or less (almost no effect))"}, {"measurement": "L: windgrass, herbicidal effect (criteria 0-5)", "setting": "[7]; [17]", "result": "0 (Herbicidal rate of 5% or less (almost no effect))"}, {"measurement": "M: velvetleaf, herbicidal effect (criteria 0-5)", "setting": "[8]; [17]", "result": "0 (Herbicidal rate of 5% or less (almost no effect))"}, {"measurement": "N: redroot pigweed, herbicidal effect (criteria 0-5)", "setting": "[9]; [17]", "result": "0 (Herbicidal rate of 5% or less (almost no effect))"}, {"measurement": "O: lambsquarters, herbicidal effect (criteria 0-5)", "setting": "[10]; [17]", "result": "2 (Herbicidal rate of 20% or more and less than 40%)"}, {"measurement": "P: chickweed, herbicidal effect (criteria 0-5)", "setting": "[11]; [17]", "result": "5 (Herbicidal rate of 90% or more (almost completely withered))"}]}]}
